Experimental data published in patent US20040219208A1, “Sustained-release medicines” (priority 2001, published 2004).

Test: Drug concentration in plasma of rat after subcutaneous administration of microcapsule
Assay type: in vivo
Conditions: sc, 25 mg microcapsule of Example 1, subcutaneous at rear neck, 9 week old male SD rat, plasma from tail vein, n = 4; for concentration at 1 week: after 1 week; for concentration at 2 weeks: after 2 weeks; for concentration at 3 weeks: after 3 weeks; for concentration at 1 day: after 1 day
Protocol: 25 mg of the microcapsule obtained in Example 1 was dispersed in 0.1 mL of dispersing medium (a solution in which 5 mg of sodium carboxymethylcellulose, 1 mg of Polysorbate 80 and 50 mg of mannitol were dissolved in 1 mL of distilled water), and this was subcutaneously administered to a 9 week old male SD rat with 23G injection needle at a rear neck part. The concentrations of drugs in plasma obtained by taking from a tail vein with time after administration were measured.

concentration at 1 week [ng/mL]	concentration at 2 weeks [ng/mL]	concentration at 3 weeks [ng/mL]	concentration at 1 day [ng/mL]	Compound
238	94	4	170	CCOc1nc2cccc(C(=O)O)c2n1Cc1ccc(-c2ccccc2-c2nnn[nH]2)cc1 [Compound B, 2-ethoxy-1-[[2′-(1H-tetrazol-5-yl)biphenyl-4-yl]methyl]benzimidazole-7-carboxylic acid]
226	155	30	313	CCc1ccc(CCOc2ccc(CC3SC(=O)NC3=O)cc2)nc1 (centres unmarked) [actos]
